Results from ChEMBL document CHEMBL6153169, “Menominin A and B: Cytotoxic Cyclodepsipeptides from the Freshwater Sponge-Associated Cyanobacterium Nostoc sp. UIC 10607” (J Nat Prod, 2025).

Key:
[1] = tested on: OVCAR-3; assay: Cytotoxicity against human OVCAR-3 cells assessed as inhibition of cell growth incubated for 72 hrs by CellTiter 96 Aqueous One Solution based assay; format: functional; conditions: OVCAR-3, 72 h
[2] = tested on: MDA-MB-435; assay: Cytotoxicity against human MDA-MB-435 cells assessed as inhibition of cell growth incubated for 72 hrs by CellTiter 96 Aqueous One Solution based assay; format: functional; conditions: MDA-MB-435, 72 h

SMILES | IC50 [1] [nM] | IC50 [2] [nM]
CCCCCC[C@@H]1CCCC[C@@H](O)[C@H](C)C(=O)O[C@@H]([C@H](C)CC)C(=O)N[C@@H](Cc2ccccc2)C(=O)O1 | 3100 | 5200
CCCCCC[C@@H]1CCCC[C@@H](O)[C@H](C)C(=O)O[C@@H](C(C)C)C(=O)N[C@@H](Cc2ccccc2)C(=O)O1 | 2400 | 2900
CC(=O)O[C@H]1C(=O)[C@@]2(C)[C@H]([C@H](OC(=O)c3ccccc3)[C@]3(O)C[C@H](OC(=O)[C@H](O)[C@@H](NC(=O)c4ccccc4)c4ccccc4)C(C)=C1C3(C)C)[C@]1(OC(C)=O)CO[C@@H]1C[C@@H]2O [PACLITAXEL] | 2.2 | 0.52
